Measured values from patent US11345702B1 (Myoforte Therapeutics, Inc., priority 2020, dated 2022).
pIC50: −log10 of the molar value.

Experiments:
[1] = Liver microsome stability assay (RLM); assay type: in vitro ADME; conditions: rat liver microsomes
Procedure: (§1) A microsomal mixture (microsomes and Kphos buffer) was prepared at a concentration of 1.428 mg/mL in 2 mL tubes. To this microsomal mixture 1.6 μL (1 mM) of test compound and positive control were spiked; from this mixture, 70 μL was transferred to 96 well plate and pre-incubated at 37° C. for 5 min. After pre-incubation, the zero minute time point reaction was stopped using 100 μL of ice-cold acetonitrile containing internal standard and […] (3.33 mM in Kphos buffer) was added. The 45 minute time point reaction was initiated by addition of 30 μL of NADPH (3.33 mM in Kphos buffer) and incubated at 37° C. for 15 and 45 min. Reactions without NADPH and buffer controls (minus NADPH) at 0, 15, and 45 minutes were also incubated to rule out non-NADPH metabolism or chemical instability in the incubation buffer. Incubation reactions were stopped with 100 μL of ice-cold acetonitrile containing internal standard. The plates were centrifuged at 4000 RPM for 15 min and 100 μL aliquots were submitted for analysis by LC-MS/MS. (Verapamil in human liver microsomes (HLM) and rat liver microsomes (RLM) was used as positive controls. Imipramine in mouse liver microsomes (MLM) was used as a positive control.) Samples were monitored for parent compound disappearance in MRM mode (multiple reaction monitoring) using LC-MS/MS. The peak area ratios of analyte versus internal standard were used to calculate the % remaining at the end of 45 minutes in the presence of NADPH.

15-PGDH/HPGD = 15-PGDH/HPGD (Homo sapiens (Human), UniProt P15428); experiment: hPGDH inhibitor screening biochemical assay; conditions: read-out: hPGDH: Average IC50
Sequence of 15-PGDH/HPGD (P15428 whole entry): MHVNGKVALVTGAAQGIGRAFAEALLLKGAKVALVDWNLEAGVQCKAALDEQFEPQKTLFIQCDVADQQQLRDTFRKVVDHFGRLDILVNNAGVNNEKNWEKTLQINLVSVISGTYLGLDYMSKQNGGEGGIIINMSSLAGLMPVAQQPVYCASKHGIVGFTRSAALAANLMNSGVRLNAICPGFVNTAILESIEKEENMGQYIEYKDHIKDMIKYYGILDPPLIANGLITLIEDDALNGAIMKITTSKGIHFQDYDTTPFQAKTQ
Summary of the method: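 Recombinant human 15-PGDH (10 nM) pre-incubated with compounds 10 min at 37 °C, then 15 μM PGE2 and 0.25 mM NAD+ added for 10 min at room temperature in 50 mM Tris-HCl pH 7.5, 0.01% Tween 20. NADH fluorescence read at ex/em 340/485 nm. IC50 from 10-point curves, four-parameter fit versus 1% DMSO.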

[2] = Liver microsome stability assay (MLM); assay type: in vitro ADME; conditions: mouse liver microsomes
Procedure: as §1

Compound | RLM + NADPH (% remaining at 45 min) [1] | pIC50 (15-PGDH/HPGD) | MLM + NADPH (% remaining at 45 min) [2]
COc1ccc(-n2c(C)nc3cc(C(=O)N4CCC(F)CC4)ccc32)cc1 [MF-DH-187] | 17% | > 7.00 | –
COc1ccc(-n2ccc3cc(C(=O)N4CCC(F)CC4)ccc32)cc1 [MF-DH-189] | 23% | > 7.00 | –
COc1ccc(-n2cc(C)c3cc(C(=O)N4CCC(F)CC4)ccc32)cc1 [MF-DH-190, (4-fluoropiperidin-1-yl)(1-(4-methoxyphenyl)-3-methyl-1H-indol-5-yl)methanone] | 29% | > 7.00 | –
CCc1nc2cc(C(=O)N3CCC(F)CC3)ccc2n1-c1ccc(OC)cc1 [MF-DH-193] | 0% | > 7.00 | –
CCC(CC)n1cnc2cc(C(=O)N3CCC(F)CC3)cnc21 [MF-DH-201] | 48% | ≤ 6.00 | –
COc1ccc(-n2c(C)nc3cc(C(=O)N4CCCCC4)cnc32)cc1 [MF-DH-205] | 78% | > 7.00 | –
COc1ccc(-n2c(C)nc3cc(C(=O)N4CCCCC4)ccc32)cc1 [MF-DH-206] | 9% | > 7.00 | –
O=C(c1cnc2c(c1)ncn2-c1ccc(F)cc1)N1CCC(F)CC1 [MF-DH-214] | 60% | 6.00 to 7.00 | –
O=C(c1cnc2c(c1)ncn2-c1ccc(F)cc1)N1CCCCC1 [MF-DH-215] | 45% | > 7.00 | –
O=C(c1cnc2c(c1)ncn2-c1ccc(F)c(F)c1)N1CCC(F)CC1 [MF-DH-216] | 64% | 6.00 to 7.00 | –
O=C(c1cnc2c(c1)ncn2-c1ccc(F)c(F)c1)N1CCCCC1 [MF-DH-217] | 34% | > 7.00 | –
CC1(C)NC(=O)N(c2ccc(-n3ccc4cc(C(=O)N5CCC(F)(F)CC5)cnc43)cn2)C1=O [MF-DH-457] | – | > 7.00 | 87%
O=C(Nc1ccno1)c1cncc(-n2ccc3cc(C(=O)N4CCC(F)(F)CC4)cnc32)c1 [MF-DH-459, 5-(5-(4,4-difluoropiperidine-1-carbonyl)-1H-pyrrolo[2,3-b]pyridin-1-yl)-N-(isoxazol-5-yl)nicotinamide] | – | > 7.00 | 31%
NC(=O)c1ccc(-n2cnc3cc(C(=O)N4CCC(F)(F)CC4)cnc32)cc1 [MF-DH-464] | – | > 7.00 | 100%
NCCNC(=O)c1cccc(-n2ccc3cc(C(=O)N4CCC(F)(F)CC4)cnc32)c1 [MF-DH-467, N-(2-aminoethyl)-3-(5-(4,4-difluoropiperidine-1-carbonyl)-1H-pyrrolo[2,3-b]pyridin-1-yl)benzamide] | – | 6.00 to 7.00 | 90%
Cc1nc(-c2cncc(-n3ccc4cc(C(=O)N5CCC(F)(F)CC5)cnc43)c2)no1 [MF-DH-470, (4,4-difluoropiperidin-1-yl)(1-(5-(5-methyl-1,2,4-oxadiazol-3-yl)pyridin-3-yl)-1H-pyrrolo[2,3-b]pyridin-5-yl)methanone] | – | > 7.00 | 74%
Cc1nc(-c2ccc(-n3ccc4cc(C(=O)N5CCC(F)(F)CC5)cnc43)cn2)no1 [MF-DH-471, (4,4-difluoropiperidin-1-yl)(1-(6-(5-methyl-1,2,4-oxadiazol-3-yl)pyridin-3-yl)-1H-pyrrolo[2,3-b]pyridin-5-yl)methanone] | – | > 7.00 | 99%

Compound | RLM + NADPH (% remaining at 45 min) [1] | pIC50 (15-PGDH/HPGD) | MLM + NADPH (% remaining at 45 min) [2]
O=C(c1cnc2c(ccn2-c2cncc(N3CCOC3=O)c2)c1)N1CCC(F)(F)CC1 [MF-DH-472] | – | > 7.00 | 83%
NC(=O)c1cncc(-n2cc(Cl)c3cc(C(=O)N4CCC(F)(F)CC4)cnc32)c1 [MF-DH-482] | – | > 7.00 | 103%
CCOC(=O)Nc1cncc(-n2ccc3cc(C(=O)N4CCC(F)(F)CC4)cnc32)c1 [MF-DH-485, ethyl (5-(5-(4,4-difluoropiperidine-1-carbonyl)-1H-pyrrolo[2,3-b]pyridin-1-yl)pyridin-3-yl)carbamate] | – | > 7.00 | 80%
O=C(Nc1cc(C2CC2)[nH]n1)c1cccc(-n2ccc3cc(C(=O)N4CCC(F)(F)CC4)cnc32)c1 [MF-DH-498, N-(5-cyclopropyl-1H-pyrazol-3-yl)-3-(5-(4,4-difluoropiperidine-1-carbonyl)-1H-pyrrolo[2,3-b]pyridin-1-yl)benzamide] | – | > 7.00 | 0%
O=C(Nc1ccn(C2CC2)n1)c1cccc(-n2ccc3cc(C(=O)N4CCC(F)(F)CC4)cnc32)c1 [MF-DH-499, N-(1-cyclopropyl-1H-pyrazol-3-yl)-3-(5-(4,4-difluoropiperidine-1-carbonyl)-1H-pyrrolo[2,3-b]pyridin-1-yl)benzamide] | – | > 7.00 | 15%
O=C(Nc1ccn(C2CC2)n1)c1cncc(-n2ccc3cc(C(=O)N4CCC(F)(F)CC4)cnc32)c1 [MF-DH-500, N-(1-cyclopropyl-1H-pyrazol-3-yl)-5-(5-(4,4-difluoropiperidine-1-carbonyl)-1H-pyrrolo[2,3-b]pyridin-1-yl)nicotinamide] | – | > 7.00 | 60%
O=C(O)c1cccc(-n2ccc3cc(C(=O)N4CCC(F)(F)CC4)cnc32)c1 [MF-DH-507, 3-(5-(4,4-difluoropiperidine-1-carbonyl)-1H-pyrrolo[2,3-b]pyridin-1-yl)benzoic acid] | – | > 7.00 | 97%
O=C(c1cnc2c(ccn2-c2ccc(-c3nn[nH]n3)cc2)c1)N1CCC(F)(F)CC1 [MF-DH-514, (1-(4-(2H-tetrazol-5-yl)phenyl)-1H-pyrrolo[2,3-b]pyridin-5-yl)(4,4-difluoropiperidin-1-yl)methanone] | – | > 7.00 | 110%
O=C(c1cnc2c(ccn2-c2cccc(-c3nn[nH]n3)c2)c1)N1CCC(F)(F)CC1 [MF-DH-515, (1-(3-(2H-tetrazol-5-yl)phenyl)-1H-pyrrolo[2,3-b]pyridin-5-yl)(4,4-difluoropiperidin-1-yl)methanone] | – | > 7.00 | 103%
O=C(c1cnc2c(ccn2-c2cncc(-c3nc[nH]n3)c2)c1)N1CCC(F)(F)CC1 [MF-DH-516, (1-(5-(1H-1,2,4-triazol-3-yl)pyridin-3-yl)-1H-pyrrolo[2,3-b]pyridin-5-yl)(4,4-difluoropiperidin-1-yl)methanone] | – | > 7.00 | 88%
O=C(c1cnc2c(ccn2-c2cncc(-c3n[nH]c(C4CC4)n3)c2)c1)N1CCC(F)(F)CC1 [MF-DH-517, (1-(5-(5-cyclopropyl-1H-1,2,4-triazol-3-yl)pyridin-3-yl)-1H-pyrrolo[2,3-b]pyridin-5-yl)(4,4-difluoropiperidin-1-yl)methanone] | – | > 7.00 | 47%
O=C(c1cnc2c(ccn2-c2ccc(-c3n[nH]c(C4CC4)n3)nc2)c1)N1CCC(F)(F)CC1 [MF-DH-518, (1-(6-(5-cyclopropyl-1H-1,2,4-triazol-3-yl)pyridin-3-yl)-1H-pyrrolo[2,3-b]pyridin-5-yl)(4,4-difluoropiperidin-1-yl)methanone] | – | > 7.00 | 92%
O=C(c1cnc2c(ccn2-c2ccc(-c3nnc(C(F)(F)F)[nH]3)nc2)c1)N1CCC(F)(F)CC1 [MF-DH-519, (4,4-difluoropiperidin-1-yl)(1-(6-(5-(trifluoromethyl)-4H-1,2,4-triazol-3-yl)pyridin-3-yl)-1H-pyrrolo[2,3-b]pyridin-5-yl)methanone] | – | > 7.00 | 89%
CC(C)(C)c1ccc(NC(=O)c2cncc(-n3ccc4cc(C(=O)N5CCC(F)(F)CC5)cnc43)c2)cn1 [MF-DH-520, N-(6-(tert-butyl)pyridin-3-yl)-5-(5-(4,4-difluoropiperidine-1-carbonyl)-1H-pyrrolo[2,3-b]pyridin-1-yl)nicotinamide] | – | > 7.00 | 38%
CC(C)(O)CNC(=O)c1cc(Cl)cc(-n2ccc3cc(C(=O)N4CCC(F)(F)CC4)cnc32)c1 [MF-DH-521] | – | > 7.00 | 84%
CC(C)(O)CCc1cc2cc(C(=O)N3CCC(F)(F)CC3)cnc2n1-c1ccc(C(=O)O)cc1 [MF-DH-538, 4-(5-(4,4-difluoropiperidine-1-carbonyl)-2-(3-hydroxy-3-methylbutyl)-1H-pyrrolo[2,3-b]pyridin-1-yl)benzoic acid] | – | > 7.00 | 91%
Cc1nc(-c2ccc(-n3c(CCC(C)(C)O)cc4cc(C(=O)N5CCC(F)(F)CC5)cnc43)cc2)no1 [MF-DH-542, (4,4-difluoropiperidin-1-yl)(2-(3-hydroxy-3-methylbutyl)-1-(4-(5-methyl-1,2,4-oxadiazol-3-yl)phenyl)-1H-pyrrolo[2,3-b]pyridin-5-yl)methanone] | – | > 7.00 | 68%
